Experimental data taken from PMC8467576, “Novel Ubiquitin Specific Protease-13 Inhibitors Alleviate Neurodegenerative Pathology” (Metabolites, 2021).

How the values were obtained:
[1] = test system: human alpha-synuclein; test: Human alpha-synuclein ELISA in transfected SH-SY5Y cells; type: cell-based; conditions: 5 h, at 1 mM and 100 µM
Experimental: Stably transfected human neuroblastoma SH-SY5Y cells with human wild-type alpha-synuclein were treated with 1 mM, 100 µM, 10 µM, 1 µM, 0.1 µM, 0.01 µM and 0.001 µM of each of BK50118-A, BK50118-B, BK50118-C, CL3-499, CL3-512 and CL3-514 dissolved in an equivalent volume of DMSO for 5 h. […] The other 5 compounds were also able to lower alpha-synuclein levels but with less potency (Figure 3H,I,K–M).
SH-SY5Y cells were transiently transfected for 24 h with human wild-type α-synuclein using Fugene HD transfection reagent (Promega, E2311, Madison, WI, USA) according to manufacturer’s protocol. Cells were treated with 1 mM, 0.1 mM, 0.01 mM, 1 µM, 0.1 µM, 0.01 µM and 0.001 µM of each novel compounds (BK50118-A, BK50118-B, BK50118-C, CL3-499, CL3-512 and CL3-514) dissolved in DMSO for 5 h. […] Cell viability was determined via lactate dehydrogenase assay on culture media (Thermofisher, 88954) and MTT assay on plated cells (Thermofisher, V13154). […]

[2] = test system: human alpha-synuclein; test: Alpha-synuclein levels in TgA53T mice (WB, ELISA, DAB staining); type: in vivo, mouse; conditions: vs DMSO; for reduction of number of human alpha-synuclein positive neurons: 40 mg/Kg I.P. daily for 7 days
Experimental: Male and female TgA53T mice (15 months old) were treated daily with intraperitoneal injection of DMSO versus 10 mg/kg or 40 mg/kg BK50118-C for 7 days. […] ELISA measurement of alpha-synuclein in the same extracts (Figure 4C) confirmed that human alpha-synuclein was reduced by about 30% (10 mg/kg) and 56% (40 mg/kg), respectively (Figure 4C).
BK50118-C is one of novel small molecule inhibitors of USP13 synthesized in our laboratory. For BK50118-C treatment, approximately 15 months old (±1 month) male and female TgA53T mice were treated with intraperitoneal injection of vehicle (DMSO) or BK50118-C at the daily dosage of 10 mg/Kg or 40 mg/Kg for 7 days. Animals were age and sex-matched in their respective treatment cohorts. All animals were sacrificed after treatment. All experiments were conducted in full compliance with the recommendations of Georgetown University Animal Care and Use Committee. These experiments were conducted under animal protocol No. 2016-1194 titled, Misfolded Protein Clearance in Neurodegeneration, which was approved by the Georgetown University IACUC. Protocol Information: IACUC Protocol Number: 2016-1194. Protocol Approval Date: 14 September 2020 Expiration Date: 14 September 2023.
To extract the soluble proteins from mouse midbrain lysates, tissues were isolated and homogenized in 1x STEN buffer (50 mM Tris (pH 7.6), 150 mM NaCl, 2 mM EDTA, 0.2% NP-40, 0.2% BSA, 20 mMPMSF and protease cocktail inhibitor), centrifuged at 10,000× g for 20 min at 4 °C, and the supernatant containing the soluble protein fraction was collected. Extracts were analyzed by Western blot (WB) on 4–12% SDS NuPAGE Bis-Tris gel (Invitrogen, NP0301BOX). Beta-actin (β-actin) was probed (1:3000) with monoclonal antibody (Emdmillipore, MAB1501R, Burlington, MA, USA). Human alpha-synuclein was probed (1:2000) with monoclonal antibody (Thermo Fisher, AHB0261, Rockford, IL, USA). USP13 was probed (1:1000) with polyclonal antibody (ThermoFisher, PA5-12014, Rockford, IL, USA). Ubiquitin was probed (1:5000) with polyclonal antibody (Thermo Fisher, PA3-16717, Rockford, IL, USA). WBs were quantified by densitometry using Quantity One 4.6.3 software (Bio Rad, Hercules, CA, USA) and Image J.
The ELISA for USP13 (MyBioSource, Cat # MBS9335287, San Diego, CA, USA), Human alpha-synuclein (Biolegend, Cat # 844101, San Diego, CA, USA) and specific p-Tau ser396 (Invitrogen, KHB7031, Waltham, MA, USA) were performed on cell or brain tissue extracts as described above according to manufacturers’ protocol.
DAB staining was performed for alpha-synuclein (Thermo Fisher, AHB0261, Rockford, IL, USA) on the 20 µm thick mouse brain sections, and stereological counting of alpha-synuclein+ neurons counterstained with Nissl was conducted.

Compound: Fc1ccc2nccc(OCc3ccccc3)c2c1 [BK50118-C, 4-benzyloxy-6-fluoroquinoline]
- alpha-synuclein levels (ELISA) [1]: almost complete alpha-synuclein clearance
- reduction of human alpha-synuclein in midbrain extracts (ELISA) ([2]; 10 mg/kg I.P. daily for 7 days): about 30%
- human alpha-synuclein in midbrain lysates (WB) ([2]; 10 mg/kg or 40 mg/kg I.P. daily for 7 days): significantly reduced
- reduction of human alpha-synuclein in midbrain extracts (ELISA) ([2]; 40 mg/kg I.P. daily for 7 days): ~56%
- reduction of number of human alpha-synuclein positive neurons ([2]; cortex): 42%
- reduction of number of human alpha-synuclein positive neurons ([2]; striatum): 40%
